The values that follow come from patent US20240299387A1, “HETEROCYCLIC EGFR INHIBITORS FOR USE IN THE TREATMENT OF CANCER” (Blueprint Medicines Corporation, priority 2021, published 2024).

Like-named read-outs stand apart in the source and are kept apart here. A value given as a limit tells only on which side of the number the result lay.

The target of one test is T1, EGFR (L858R T790M C797S) (Homo sapiens, UniProt P00533, C797S/L858R/T790M).
T1 construct: purchased SignalChem E10-122VG
Put plainly: Biochemical EGFR inhibition assay (Caliper mobility shift), EGFR LRTMCS mutant. As for the experimental part: Reactions proceeded until between 10% to 20% total peptides were phosphorylated at room temperature (25° C.) and were terminated with 35 mM 2,2′,2″,2′″-(ethane-1,2-diyldinitrilo)tetraacetic acid (EDTA). Product was detected using the Caliper mobility shift detection method where the phosphorylated peptide (product) and substrate were electrophoretically separated and measured. Percent activity was plotted against log concentration of compound and points to generate an apparent IC50.

For test [1], the target named is T2, EGFR L858R T790M in NCI-H1975 cell line (Homo sapiens, UniProt P00533, L858R/T790M).
T2 construct: host or cells: NCI-H1975
Description: NCI-H1975 pEGFR AlphaLISA assay. Format: cell-based. The conditions noted are these: NCI-H1975 cells (EGFR L858R T790M), p-EGFR (Tyr1068), 4-5 hours incubation; read-out: Ext pEGFR H1975 GMean IC50 (nM) Protocol: @Pharmaron AlphaLISA (Num). How it is done: The NCI-H1975 cells were seeded at 12.5K/well in 22 μL into 384 well opti plate (PerkinElmer, 6007299) and adhering overnight at 37C/5% CO2. On the next day, the test compounds and DMSO control were added into H1975 cell plate followed by incubation at 37C/5% CO2 for 4-5 hours. […] Then 5 μL of a donor bead mix was added to each well followed by overnight incubation at room temperature in dark. On the next day, the plate was read at a compatible plate reader to obtain pEGFR signal. Percent of pEGFR inhibition was plotted against log concentration of compounds to generate IC50 values.

The mark [2] stands for this setting: LRTMCS (PH) IC50 (nM) @ 1 mM ATP (Num).

T1 sequence (P00533 25-1210 T790M/C797S/L858R): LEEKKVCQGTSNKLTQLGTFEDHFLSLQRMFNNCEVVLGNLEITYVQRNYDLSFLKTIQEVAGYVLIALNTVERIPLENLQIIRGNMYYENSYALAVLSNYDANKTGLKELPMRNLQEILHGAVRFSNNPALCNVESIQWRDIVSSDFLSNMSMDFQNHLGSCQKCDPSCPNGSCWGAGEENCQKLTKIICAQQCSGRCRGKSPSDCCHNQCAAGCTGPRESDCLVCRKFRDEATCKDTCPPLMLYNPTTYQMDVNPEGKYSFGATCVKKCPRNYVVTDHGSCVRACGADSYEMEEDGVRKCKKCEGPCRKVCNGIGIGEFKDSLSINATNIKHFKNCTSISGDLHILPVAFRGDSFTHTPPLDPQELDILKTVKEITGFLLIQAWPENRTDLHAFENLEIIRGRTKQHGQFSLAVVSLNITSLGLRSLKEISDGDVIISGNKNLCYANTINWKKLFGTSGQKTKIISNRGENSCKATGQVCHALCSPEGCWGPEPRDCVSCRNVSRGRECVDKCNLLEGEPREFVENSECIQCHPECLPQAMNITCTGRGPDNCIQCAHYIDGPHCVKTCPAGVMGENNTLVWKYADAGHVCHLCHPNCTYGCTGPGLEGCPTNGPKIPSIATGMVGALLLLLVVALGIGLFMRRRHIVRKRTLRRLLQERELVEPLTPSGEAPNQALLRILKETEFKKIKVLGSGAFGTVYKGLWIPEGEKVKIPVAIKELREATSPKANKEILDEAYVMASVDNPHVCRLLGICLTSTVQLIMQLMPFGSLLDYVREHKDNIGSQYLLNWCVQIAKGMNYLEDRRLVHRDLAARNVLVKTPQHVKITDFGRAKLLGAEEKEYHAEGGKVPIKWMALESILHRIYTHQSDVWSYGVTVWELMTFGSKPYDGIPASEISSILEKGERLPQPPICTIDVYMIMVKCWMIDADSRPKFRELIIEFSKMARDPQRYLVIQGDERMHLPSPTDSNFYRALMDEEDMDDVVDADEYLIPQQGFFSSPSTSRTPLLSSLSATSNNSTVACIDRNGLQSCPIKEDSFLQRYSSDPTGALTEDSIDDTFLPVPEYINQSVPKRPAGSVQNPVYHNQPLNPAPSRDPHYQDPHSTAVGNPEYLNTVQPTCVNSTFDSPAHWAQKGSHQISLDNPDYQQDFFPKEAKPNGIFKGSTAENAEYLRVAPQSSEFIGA
T2 sequence (P00533 25-1210 T790M/L858R): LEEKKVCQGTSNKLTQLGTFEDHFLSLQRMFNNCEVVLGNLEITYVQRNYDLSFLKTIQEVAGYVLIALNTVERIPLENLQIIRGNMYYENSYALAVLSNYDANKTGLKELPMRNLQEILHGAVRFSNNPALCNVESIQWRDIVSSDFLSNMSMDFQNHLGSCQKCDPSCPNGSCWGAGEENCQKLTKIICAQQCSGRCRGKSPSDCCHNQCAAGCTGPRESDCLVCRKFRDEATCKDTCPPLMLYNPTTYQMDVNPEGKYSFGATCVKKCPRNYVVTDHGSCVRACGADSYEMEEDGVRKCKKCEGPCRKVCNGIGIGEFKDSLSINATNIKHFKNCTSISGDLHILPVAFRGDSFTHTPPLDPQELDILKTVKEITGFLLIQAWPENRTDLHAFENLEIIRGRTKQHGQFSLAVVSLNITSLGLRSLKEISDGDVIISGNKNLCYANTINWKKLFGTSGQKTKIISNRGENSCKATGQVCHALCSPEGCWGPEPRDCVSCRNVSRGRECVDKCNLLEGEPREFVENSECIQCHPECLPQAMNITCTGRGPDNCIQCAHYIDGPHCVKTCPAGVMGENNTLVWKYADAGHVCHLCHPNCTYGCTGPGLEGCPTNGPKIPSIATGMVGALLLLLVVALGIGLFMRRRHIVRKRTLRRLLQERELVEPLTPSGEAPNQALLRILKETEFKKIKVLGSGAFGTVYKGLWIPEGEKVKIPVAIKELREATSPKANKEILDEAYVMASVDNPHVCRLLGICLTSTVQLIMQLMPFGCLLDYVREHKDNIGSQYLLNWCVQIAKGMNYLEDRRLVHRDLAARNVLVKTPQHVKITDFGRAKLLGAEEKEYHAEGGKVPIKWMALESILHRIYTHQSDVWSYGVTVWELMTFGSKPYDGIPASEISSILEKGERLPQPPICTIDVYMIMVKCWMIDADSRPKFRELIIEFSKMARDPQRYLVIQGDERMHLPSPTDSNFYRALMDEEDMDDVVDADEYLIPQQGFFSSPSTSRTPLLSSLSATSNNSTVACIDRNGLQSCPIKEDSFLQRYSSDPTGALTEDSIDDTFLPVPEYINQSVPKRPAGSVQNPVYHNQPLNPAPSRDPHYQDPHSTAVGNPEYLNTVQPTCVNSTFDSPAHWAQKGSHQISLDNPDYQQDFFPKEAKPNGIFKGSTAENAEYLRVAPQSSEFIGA

On to `CO[C@H]1CCN(c2nccc(Nc3cc4c(C(C)C)ccc(OCC5CN(C(C)=O)C5)c4cn3)n2)C[C@@H]1O` (single isomer, unassigned) [Example 57, 1-(3-(((3-((2-((3S,4S)-3-hydroxy-4-methoxypiperidin-1-yl)pyrimidin-4-yl)amino)-5-isopropylisoquinolin-8-yl)oxy)methyl)azetidin-1-yl)ethan-1-one or 1-(3-(((3-((2-((3R,4R)-3-hydroxy-4-methoxypiperidin-1-yl)pyrimidin-4-yl)amino)-5-isopropylisoquinolin-8-yl)oxy)methyl)azetidin-1-yl)ethan-1-one], for which the IC50 at EGFR (L858R T790M C797S) (setting [2]) was 15 to 20 nM; in test [1], more than 50 nM.
`CO[C@H]1CCN(c2nccc(Nc3cc4c(C(C)C)ccc(OCCCNC(C)=O)c4cn3)n2)C[C@@H]1O` (single isomer, unassigned) [Example 58, N-(3-((3-((2-((3S,4S)-3-hydroxy-4-methoxypiperidin-1-yl)pyrimidin-4-yl)amino)-5-isopropylisoquinolin-8-yl)oxy)propyl)acetamide or N-(3-((3-((2-((3R,4R)-3-hydroxy-4-methoxypiperidin-1-yl)pyrimidin-4-yl)amino)-5-isopropylisoquinolin-8-yl)oxy)propyl)acetamide]: the 50% inhibitory concentration (IC50) was less than 15 nM at EGFR (L858R T790M C797S) (setting [2]) and 20 to 30 nM in test [1].
For `CC(C)c1cnc(C(N)=O)c2cnc(Nc3ccnc(N4CC[C@@H](O)[C@@](C)(F)C4)n3)cc12` (single isomer, unassigned) [Example 61, 6-((2-((3S,4R)-3-fluoro-4-hydroxy-3-methylpiperidin-1-yl)pyrimidin-4-yl)amino)-4-isopropyl-2,7-naphthyridine-1-carboxamide or 6-((2-((3R,4S)-3-fluoro-4-hydroxy-3-methylpiperidin-1-yl)pyrimidin-4-yl)amino)-4-isopropyl-2,7-naphthyridine-1-carboxamide] the same measures were 20 to 30 nM and more than 50 nM.
Consider `CC(C)c1cnc(C(=O)N[C@H]2CC2(F)F)c2cnc(Nc3ccnc(N4CC[C@@H](O)[C@@](C)(F)C4)n3)cc12` (single isomer, unassigned) [Example 63, N—((S)-2,2-difluorocyclopropyl)-6-((2-((3S,4R)-3-fluoro-4-hydroxy-3-methylpiperidin-1-yl)pyrimidin-4-yl)amino)-4-isopropyl-2,7-naphthyridine-1-carboxamide or N—((R)-2,2-difluorocyclopropyl)-6-((2-((3S,4R)-3-fluoro-4-hydroxy-3-methylpiperidin-1-yl)pyrimidin-4-yl)amino)-4-isopropyl-2,7-naphthyridine-1-carboxamide], for which the IC50 is 15 to 20 nM on EGFR (L858R T790M C797S) (setting [2]) and more than 50 nM in test [1].
For `CNC(=O)c1ncc(C(C)C)c2cc(Nc3ccnc(N4C[C@@H](F)[C@@H](O)C(C)(C)C4)n3)ncc12` (single isomer, unassigned) [Example 82, 6-((2-((4S,5R)-5-fluoro-4-hydroxy-3,3-dimethylpiperidin-1l-yl)pyrimidin-4-yl)amino)-4-isopropyl-N-methyl-2,7-naphthyridine-1-carboxamide or 6-((2-((4R,5S)-5-fluoro-4-hydroxy-3,3-dimethylpiperidin-1-yl)pyrimidin-4-yl)amino)-4-isopropyl-N-methyl-2,7-naphthyridine-1-carboxamide] the same measures were 15 to 20 nM and more than 50 nM.
For `CC(C)c1cnc(C(=O)N[C@H]2CN(C)C[C@H]2F)c2cnc(Nc3ccnc(N4CC[C@@H](O)[C@@](C)(F)C4)n3)cc12` (single isomer, unassigned) [Example 87], in that order: less than 15 nM and 10 to 20 nM.
As to `CC(C)c1cnc(C(=O)N[C@H]2CN(C)C[C@H]2F)c2cnc(Nc3ccnc(N4CC[C@@H](O)[C@@](C)(F)C4)n3)cc12` (single isomer, unassigned) [Example 88], the half-maximal inhibitory concentration (IC50) at EGFR (L858R T790M C797S) (read-out: LRTMCS (PH) IC50 (nM) @ 1 mM ATP (Num)) is less than 15 nM; in test [1], 10 to 20 nM.
Regarding `CC(C)c1cnc(C(=O)N[C@@H]2CN(C)C[C@H]2F)c2cnc(Nc3ccnc(N4CC[C@@H](O)[C@@](C)(F)C4)n3)cc12` (single isomer, unassigned) [Example 89], the IC50 is 15 to 20 nM on EGFR (L858R T790M C797S) (setting [2]) and more than 50 nM in test [1].
For `CC(C)c1cnc(C(=O)N[C@@H]2CN(C)C[C@H]2F)c2cnc(Nc3ccnc(N4CC[C@@H](O)[C@@](C)(F)C4)n3)cc12` (single isomer, unassigned) [Example 90], in that order: less than 15 nM and 10 to 20 nM.
Regarding `CC(C)c1cnc(NCCS(C)(=O)=O)c2cnc(Nc3ccnc(N4CC[C@@H](O)[C@@](C)(F)C4)n3)cc12` [Example 2, (3S,4R)-3-fluoro-1-(4-((5-isopropyl-8-((2-(methylsulfonyl)ethyl)amino)-2,7-naphthyridin-3-yl)amino)pyrimidin-2-yl)-3-methylpiperidin-4-ol], the 50% inhibitory concentration (IC50) on EGFR (L858R T790M C797S) (setting [2]) is less than 15 nM; in test [1] it was 10 to 20 nM.
In the case of `CO[C@@H]1CCN(c2nccc(Nc3cc4c(C(C)C)cnc(NCCN(C)C)c4cn3)n2)C[C@@H]1F` [Example 3, N^1-(2-(dimethylamino)ethyl)-N^6-(2-((3S,4R)-3-fluoro-4-methoxypiperidin-1-yl)pyrimidin-4-yl)-4-isopropyl-2,7-naphthyridine-1,6-diamine], the figures for the IC50 (on EGFR (L858R T790M C797S) (setting [2]); in test [1]) were 15 to 20 nM and more than 50 nM, respectively.
Consider `CC(=O)N1CC(CNc2ccc(C(C)C)c3cc(Nc4ccnc(N5CC[C@@H](O)[C@@](C)(F)C5)n4)ncc23)C1` [Example 5, 1-(3-(((3-((2-((3S,4R)-3-fluoro-4-hydroxy-3-methylpiperidin-1-yl)pyrimidin-4-yl)amino)-5-isopropylisoquinolin-8-yl)amino)methyl)azetidin-1-yl)ethan-1-one], for which the IC50 was less than 15 nM at EGFR (L858R T790M C797S) (setting [2]) and 20 to 30 nM in test [1].
For `CC(C)c1cnc(Nc2cnn(C)c2)c2cnc(Nc3ccnc(N4CC[C@@H](O)[C@@](C)(F)C4)n3)cc12` [Example 6, (3S,4R)-3-fluoro-1-(4-((5-isopropyl-8-((1-methyl-1H-pyrazol-4-yl)amino)-2,7-naphthyridin-3-yl)amino)pyrimidin-2-yl)-3-methylpiperidin-4-ol], in that order: 20 to 30 nM and more than 50 nM.
For the molecule `CC(=O)N1CC(C)(COc2ccc(C(C)C)c3cc(Nc4ccnc(N5CC[C@@H](O)[C@@](C)(F)C5)n4)ncc23)C1` [Example 7, 1-(3-(((3-((2-((3S,4R)-3-fluoro-4-hydroxy-3-methylpiperidin-1-yl)pyrimidin-4-yl)amino)-5-isopropylisoquinolin-8-yl)oxy)methyl)-3-methylazetidin-1-yl)ethan-1-one], the IC50 on EGFR (L858R T790M C797S) (setting [2]) lay within 15 to 20 nM; in test [1], 30 to 50 nM.
In the case of `CC(=O)N1CC(COc2ccc(C(C)C)c3cc(Nc4ccnc(N5CC[C@@H](O)[C@@](C)(F)C5)n4)ncc23)C1` [Example 8, 1-(3-(((3-((2-((3S,4R)-3-fluoro-4-hydroxy-3-methylpiperidin-1-yl)pyrimidin-4-yl)amino)-5-isopropylisoquinolin-8-yl)oxy)methyl)azetidin-1-yl)ethan-1-one], the IC50 was less than 15 nM at EGFR (L858R T790M C797S) (setting [2]) and less than 10 nM in test [1].
`CC(C)c1ccc(OCc2cnn(C)c2)c2cnc(Nc3ccnc(N4CC[C@@H](O)[C@@](C)(F)C4)n3)cc12` [Example 9, (3S,4R)-3-fluoro-1-(4-((5-isopropyl-8-((1-methyl-1H-pyrazol-4-yl)methoxy)isoquinolin-3-yl)amino)pyrimidin-2-yl)-3-methylpiperidin-4-ol]: the half-inhibitory concentration (IC50) at EGFR (L858R T790M C797S) (setting [2]) was less than 15 nM; in test [1], more than 50 nM.
As to `CC(C)c1ccc(OCc2cn(C)nn2)c2cnc(Nc3ccnc(N4CC[C@@H](O)[C@@](C)(F)C4)n3)cc12` [Example 10, (3S,4R)-3-fluoro-1-(4-((5-isopropyl-8-((1-methyl-1H-1,2,3-triazol-4-yl)methoxy)isoquinolin-3-yl)amino)pyrimidin-2-yl)-3-methylpiperidin-4-ol], the figures for the IC50 (on EGFR (L858R T790M C797S) (setting [2]); in test [1]) were less than 15 nM and 30 to 50 nM, respectively.
For `CC(=O)N1CC(COc2ccc(C(C)C)c3cc(Nc4ccnc(N5CC[C@@](C)(O)[C@@H](F)C5)n4)ncc23)C1` [Example 11, 1-(3-(((3-((2-((3S,4R)-3-fluoro-4-hydroxy-4-methylpiperidin-1-yl)pyrimidin-4-yl)amino)-5-isopropylisoquinolin-8-yl)oxy)methyl)azetidin-1-yl)ethanone], in that order: 20 to 30 nM and more than 50 nM.
As to `CC(C)c1ccc(OCCn2ccnc2)c2cnc(Nc3ccnc(N4CC[C@@](C)(O)[C@@H](F)C4)n3)cc12` [Example 12, (3S,4R)-1-(4-((8-(2-(1H-imidazol-1-yl)ethoxy)-5-isopropylisoquinolin-3-yl)amino)pyrimidin-2-yl)-3-fluoro-4-methylpiperidin-4-ol], the half-maximal inhibitory concentration (IC50) on EGFR (L858R T790M C797S) (setting [2]) was less than 15 nM; in test [1], more than 50 nM.
For `Cc1nccn1CCOc1ccc(C(C)C)c2cc(Nc3ccnc(N4CC[C@@](C)(O)[C@@H](F)C4)n3)ncc12` [Example 13, (3S,4R)-3-fluoro-1-(4-((5-isopropyl-8-(2-(2-methyl-1H-imidazol-1-yl)ethoxy)isoquinolin-3-yl)amino)pyrimidin-2-yl)-4-methylpiperidin-4-ol], in that order: less than 15 nM and 30 to 50 nM.
